Square brackets hold non-standard residues; d marks the D form. Peptide text beside a SMILES is read from it. * marks the point of attachment. ξ: configuration not given here. PhAc = O=C(Cc1ccccc1)*; ξP = O=C(O)C1CCCN1
Legend:
[1] = Preliminary study of oral bioavailability in four volunteers; assay type: in vivo; details: humans
[2] = Phase I clinical trials, plasma concentration after oral administration; assay type: in vivo, human; details: oral administration of the 20 mg/day dose
Method: Fourteen healthy young volunteers were orally administered 20 mg/day of compound 2 for 28 days in two Phase I clinical trials. 34 patients with mild to moderate cognitive disturbance were orally administered doses of up to 30 mg/day of compound 2 for 28 days.
After oral administration of the 20 mg/day dose, peak plasma concentrations of 25-38 ng/mL were observed 15-30 minutes after dosing.

[3] = tested on: patients with cognitive disturbances secondary to cerebrovascular and traumatic brain injury; assay: Four-week open-label Phase II clinical trial of efficacy (MMSE, OCS, CCSE); assay type: in vivo, human; details: 10 mg orally t.i.d. for four weeks, 20 patients with mild cognitive disturbance
Method: The efficacy of 10 mg of compound 2 administered orally t.i.d. was investigated in a four-week open-label Phase II clinical trial at two centers. A total of 20 patients with cognitive disturbances secondary to cerebrovascular and traumatic brain injury were orally administered compound 2 during a Phase II clinical trial at a dose of 10 mg t.i.d. for a period of four weeks. At study entry, patients fulfilled specific criteria for mild cognitive disturbance.
Improvement on several tests, including the Mini Mental State Evaluation (MMSE) (Folstein et al., Psychiatric Research, 12, 189-198 (1975)), the Overall Clinical Impression Scale (OCS), which is a system developed by the National Institute of Mental Health: 12-CGI Clinical Global Impression ECDEU Assessment Manual for Psychopharmacology, E. Guyo, ed., Rockville Md., (217-222) (1976), and the Cognitive Capacity Screening Exam (CCSE) (Jacobs et al., Annals of Internal Medicine, 86, 40-46 (1977).

oral bioavailability [1]: orally bioavailable
peak plasma concentrations [2]: 25 to 38 ng/mL
time of peak plasma concentrations after dosing [2]: 15 to 30 min
Structure (SMILES): CCOC(=O)CNC(=O)C1CCCN1C(=O)Cc1ccccc1 (stereo not shown) [compound 2] (PhAc-[ξP]-Gly-OEt)
treated patients who met the definition of efficacy response (statistically measured improvement in one or more of the tests by the end of the study) [3]: over 75%
